Measurements as given in paper PMC4413193, “3-[4-(1H-Indol-3-yl)-1,3-thiazol-2-yl]-1H-pyrrolo[2,3-b]pyridines, Nortopsentin Analogues with Antiproliferative Activity” (Marine Drugs, 2015).

Tests used:
NCI-H322M = test: NCI-60 in vitro tumor cell growth inhibition, NCI-H322M (non-small cell lung cancer); assay type: cell-based; details: Homo sapiens, five concentration levels
Method: (§1) All the synthesized thiazoles 3a–k were evaluated by the National Cancer Institute (Bethesda MD) for cytotoxicity against the NCI-60 cell line panel using standard protocols. Initially, the selected derivatives 3c,d,g,h,j,k were tested at a single dose (10^−5 M) on the full panel of approximately 60 human tumor cell lines derived from 9 human cancer cell types, that have been grouped in disease sub-panels including leukemia, non-small-cell lung, colon, central nervous system (CNS), melanoma, ovarian, renal, prostate and breast cancers (data not shown). Compounds 3d and 3k were further selected for full evaluation at five concentration levels (10^−4–10^−8 M).
(§2) The antitumor activity of compounds 3d and 3k was given by three parameters for each cell line: GI50 (the molar concentration of the compound that inhibits 50% net cell growth), TGI (the molar concentration of the compound leading to total inhibition of net cell growth), and LC50 (the molar concentration of the compound that induces 50% net cell death). The average values of mean graph midpoint (MG_MID) were calculated for each of these parameters.

NCI-H522 = test: NCI-60 in vitro tumor cell growth inhibition, NCI-H522 (non-small cell lung cancer); assay type: cell-based; details: Homo sapiens, five concentration levels
Method: as §1, §2

HT29 = test: NCI-60 in vitro tumor cell growth inhibition, HT29 (colon cancer); assay type: cell-based; details: Homo sapiens, HT-29, five concentration levels
Method: as §1, §2

M14 = test: NCI-60 in vitro tumor cell growth inhibition, M14 (melanoma); assay type: cell-based; details: Homo sapiens, five concentration levels
Method: as §1, §2

IGROV1 = test: NCI-60 in vitro tumor cell growth inhibition, IGROV1 (ovarian cancer); assay type: cell-based; details: Homo sapiens, IGROV-1, five concentration levels
Method: as §1, §2

OVCAR-5 = test: NCI-60 in vitro tumor cell growth inhibition, OVCAR-5 (ovarian cancer); assay type: cell-based; details: Homo sapiens, five concentration levels
Method: as §1, §2

MCF7 = test: NCI-60 in vitro tumor cell growth inhibition, MCF7 (breast cancer); assay type: cell-based; details: Homo sapiens, five concentration levels
Method: as §1, §2

BT-549 = test: NCI-60 in vitro tumor cell growth inhibition, BT-549 (breast cancer); assay type: cell-based; details: Homo sapiens, five concentration levels
Method: as §1, §2

[1] = system: human HepG2 hepatocarcinoma cells; test: MTT cell growth assay, HepG2; assay type: cell-based; details: 72 h, 0.1–10 μM
Method: Cell growth inhibitory activity of compounds 3d and 3k was also investigated on human HepG2 hepatocarcinoma cells, a cell line not included in the NCI panel and of interest in the drug discovery because provided with a very active microsomal system for detoxification of xenobiotics. Monolayer cultures treated for 72 h with 0.1–10 μM concentrations of the compounds were examined by 3-(4,5-dimethylthiazol-2-yl)-2,5-diphenyltetrazolium bromide (MTT) assay for cell growth.
Human cell lines of hepatoma HepG2 and Chang liver were purchased from American Type Culture Collection, Rockville, MD, USA. Cells were grown in RPMI supplemented with 2 mM L-glutamine, 10% FBS, 100 U/mL penicillin, 100 μg/mL streptomycin and 5 μg/mL gentamicin. HepG2 culture medium also contained 1.0 mM sodium pyruvate. Cells were maintained in log phase by seeding twice a week at a density of 3 × 10^8 cells/L in humidified 5% CO2 atmosphere, at 37 °C. […] Cytotoxic activity of the compounds was determined by the MTT quantitative colorimetric assay based on the reduction of the 3-(4,5-dimethyl-2-thiazolyl)-2,5-diphenyl-2H-tetrazolium bromide (MTT) into purple formazan by mitochondrial dehydrogenases of living cells. […] The absorbance at 540 nm was measured in a microplate reader (Bio-RAD, Hercules, CA, USA). […]

HepG2 cells = test: Intracellular reactive oxygen species, DCFH flow cytometry; assay type: cell-based, human; details: HepG2, 24 h treatment
Method: Involvement of mitochondria in apoptosis induced in HepG2 cells by the synthesized nortopsentin analogues, was assessed. Loss of mitochondrial trans-membrane potential was indicated by decreased mitochondrial 3,30-dihexyloxacarbocyanine iodide-red fluorescence (Figure 4A).
ROS level was monitored by measuring fluorescence changes that resulted from intracellular oxidation of 2′,7′-dichlorofluorescin diacetate (DCFH). DCFH, at […] final concentration, was added to the cell medium 30 min before the end of the treatment. The cells were collected by centrifugation for 5 min at 2000 rpm at 4 °C, washed, suspended in PBS and immediately subjected to fluorescence-activated cell sorting analysis. At least 1 × 10^4 cells were analyzed for each sample.

## Cn1cc(-c2csc(-c3cn(C)c4ncccc34)n2)c2ccccc21 [Compound 3d, 1-Methyl-3-[4-(1-methyl-1H-indol-3-yl)-1,3-thiazol-2-yl]-1H-pyrrolo[2,3-b]pyridine]
NCI-H322M
  GI50: 760 nM
NCI-H522
  GI50: 40 nM
HT29
  GI50: 250 nM
M14
  GI50: 270 nM
IGROV1
  GI50: 1330 nM
OVCAR-5
  GI50: 1410 nM
MCF7
  GI50: 330 nM
BT-549
  GI50: 470 nM
[1]
  GI50: 1690 nM
HepG2 cells
  levels of intracellular ROS: significantly higher than cell control

## Cn1cc(-c2nc(-c3c[nH]c4ccccc34)cs2)c2cccnc21 [Compound 3k, 3-[4-(1H-Indol-3-yl)-1,3-thiazol-2-yl]-1-methyl-1H-pyrrolo[2,3-b]pyridine]
NCI-H522
  GI50: 50 nM
HT29
  GI50: 190 nM
M14
  GI50: 280 nM
IGROV1
  GI50: 1180 nM
OVCAR-5
  GI50: 2390 nM
MCF7
  GI50: 370 nM
BT-549
  GI50: 440 nM
[1]
  GI50: 210 nM
HepG2 cells
  levels of intracellular ROS: significantly higher than cell control
